From patent US20250205259A1, “CLASS OF 7-((FIVE-MEMBERED HETEROCYCLIC)METHYL)-8-CARBOXYLIC ACID-BENZO CYCLIC BORATE DERIVATIVES AND USES THEREOF” (priority 2022, published 2025) come the findings set out here.

Assay type in all cases: biochemical
In one assay the target is VIM-1 (Pseudomonas aeruginosa, UniProt A0A0F7KYQ8). Kind of assay: Inhibitory activity on MBL, fluorescent substrate FC-5.
The next assay deals with CTX-M-14 (Escherichia coli, UniProt Q9L5C7). Kind of assay: Inhibitory activity on SBL, fluorescent substrate FC-5. The note with it: for inhibitory activity on CTX-M-14 compared to avibactam: comparison in words; for IC50: read-out: Inhibitory activity on SBL CTX-M-14 (IC50 class).
Chain of CTX-M-14 (Q9L5C7 entry or part of it): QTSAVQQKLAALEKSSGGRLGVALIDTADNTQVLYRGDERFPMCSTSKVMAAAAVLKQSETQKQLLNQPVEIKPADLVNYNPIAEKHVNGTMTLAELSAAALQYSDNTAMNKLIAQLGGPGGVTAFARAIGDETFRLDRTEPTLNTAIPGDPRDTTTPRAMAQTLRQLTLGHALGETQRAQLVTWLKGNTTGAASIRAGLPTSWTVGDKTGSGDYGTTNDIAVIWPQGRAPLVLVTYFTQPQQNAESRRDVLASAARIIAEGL
For a further assay, the target named is NDM-5 (Klebsiella pneumoniae, UniProt C7C422, M154L/V88L). Kind of assay: Inhibitory activity on MBL, fluorescent substrate FC-5.
Chain of NDM-5 (C7C422 29-270 V88L/M154L): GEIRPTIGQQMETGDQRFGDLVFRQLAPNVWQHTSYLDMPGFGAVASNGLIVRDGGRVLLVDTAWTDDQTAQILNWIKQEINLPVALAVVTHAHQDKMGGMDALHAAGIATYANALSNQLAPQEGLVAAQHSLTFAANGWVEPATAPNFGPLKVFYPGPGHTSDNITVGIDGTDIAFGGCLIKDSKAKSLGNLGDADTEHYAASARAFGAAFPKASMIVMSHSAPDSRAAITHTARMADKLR
A further assay has as its target KPC-2 (Klebsiella pneumoniae, UniProt Q9F663). Kind of assay: Inhibitory activity on SBL, fluorescent substrate FC-5. The settings on record: for inhibitory activity on KPC-2 compared to avibactam: comparison in words; for IC50: read-out: Inhibitory activity on SBL KPC-2 (IC50 class).
The next assay addresses TEM-1 (Escherichia coli, UniProt P62593). Described as above. The settings on record: for inhibitory activity on TEM-1 compared to avibactam: comparison in words; for IC50: read-out: Inhibitory activity on SBL TEM-1 (IC50 class).
The next assay concerns the target VIM-2 (Escherichia coli, UniProt Q5U7L7). As to the kind of experiment: Inhibitory activity on MBL, fluorescent substrate FC-5. The note with it: read-out: Inhibitory activity on MBL VIM-2 (IC50 class).
For a further assay, the target named is NDM-1 (Klebsiella pneumoniae, UniProt C7C422). The description is as above.
Chain of NDM-1 (C7C422 29-270 limits assumed): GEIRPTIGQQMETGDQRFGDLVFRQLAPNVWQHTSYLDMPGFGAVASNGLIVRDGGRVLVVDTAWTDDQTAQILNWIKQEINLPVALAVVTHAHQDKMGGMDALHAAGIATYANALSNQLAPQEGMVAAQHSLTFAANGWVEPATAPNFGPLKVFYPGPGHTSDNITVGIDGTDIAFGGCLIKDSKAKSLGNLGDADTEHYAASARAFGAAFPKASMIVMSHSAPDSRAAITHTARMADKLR
Another assay concerns the target IMP-1 (Serratia marcescens, UniProt P52699). Described as above. The note with it: read-out: Inhibitory activity on MBL IMP-1 (IC50 class).
A further assay has as its target OXA-48 (Klebsiella pneumoniae, UniProt Q6XEC0). Kind of assay: Inhibitory activity on SBL, fluorescent substrate FC-5. The note with it: for inhibitory activity on OXA-48 compared to avibactam: comparison in words; for IC50: read-out: Inhibitory activity on SBL OXA-48 (IC50 class).
Another assay concerns the target T1, SHV-12 (UniProt P0AD64, L31Q/G234S/E235K, species not given).
T1 sequence (P0AD64 1-286 L31Q/G234S/E235K): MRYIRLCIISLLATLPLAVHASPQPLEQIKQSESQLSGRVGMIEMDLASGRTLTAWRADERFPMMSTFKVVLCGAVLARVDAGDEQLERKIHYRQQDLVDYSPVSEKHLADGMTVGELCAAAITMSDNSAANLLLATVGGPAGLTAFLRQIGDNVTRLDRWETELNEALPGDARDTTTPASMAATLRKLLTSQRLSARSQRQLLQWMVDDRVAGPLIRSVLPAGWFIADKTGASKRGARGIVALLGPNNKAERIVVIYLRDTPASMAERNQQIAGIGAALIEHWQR
The assay is described as above. The note with it: read-out: Inhibitory activity on SBL SHV-12 (IC50 class).

Setting [1] is: VIM-1 and/or VIM-2, read-out: inhibitory activity at a nanomolar-level on VIM-1 and/or VIM-2.
Where [2] appears, read: read-out: Inhibitory activity on MBL VIM-1 (IC50 class).
The mark [3] stands for this setting: read-out: Inhibitory activity on MBL NDM-5 (IC50 class).
Where [4] appears, read: read-out: inhibitory activity at a nanomolar-level on NDM-5.
The mark [5] stands for this setting: read-out: Inhibitory activity on MBL NDM-1 (IC50 class).
Where [6] appears, read: read-out: inhibitory activity at a nanomolar-level on NDM-1.

Each structure is given as a SMILES string. Read-outs that look alike come from different tables or passages of the source.

Chain of IMP-1 (P52699 19-246 limits assumed): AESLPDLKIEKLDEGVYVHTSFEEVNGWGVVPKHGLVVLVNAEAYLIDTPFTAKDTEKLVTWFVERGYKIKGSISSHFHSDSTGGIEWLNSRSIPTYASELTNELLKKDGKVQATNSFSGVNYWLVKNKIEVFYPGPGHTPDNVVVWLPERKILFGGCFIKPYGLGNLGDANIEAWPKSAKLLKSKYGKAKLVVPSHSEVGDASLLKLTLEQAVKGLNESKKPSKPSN
Chain of KPC-2 (Q9F663 25-293 limits assumed): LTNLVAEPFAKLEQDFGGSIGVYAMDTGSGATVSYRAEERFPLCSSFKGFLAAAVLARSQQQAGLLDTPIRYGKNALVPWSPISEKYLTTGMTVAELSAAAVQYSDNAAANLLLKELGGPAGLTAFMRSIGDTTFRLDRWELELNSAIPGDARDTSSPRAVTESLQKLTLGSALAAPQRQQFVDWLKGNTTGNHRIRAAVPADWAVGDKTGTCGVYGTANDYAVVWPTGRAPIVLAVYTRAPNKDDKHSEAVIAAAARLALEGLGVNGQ
Chain of OXA-48 (Q6XEC0 23-265 limits assumed): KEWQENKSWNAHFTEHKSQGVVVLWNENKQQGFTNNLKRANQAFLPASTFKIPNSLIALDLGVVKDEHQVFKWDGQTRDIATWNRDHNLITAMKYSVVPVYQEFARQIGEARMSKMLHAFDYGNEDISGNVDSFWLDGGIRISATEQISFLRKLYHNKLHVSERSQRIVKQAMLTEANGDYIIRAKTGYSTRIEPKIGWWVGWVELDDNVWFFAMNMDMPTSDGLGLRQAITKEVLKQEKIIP
Chain of TEM-1 (P62593 24-286 limits assumed): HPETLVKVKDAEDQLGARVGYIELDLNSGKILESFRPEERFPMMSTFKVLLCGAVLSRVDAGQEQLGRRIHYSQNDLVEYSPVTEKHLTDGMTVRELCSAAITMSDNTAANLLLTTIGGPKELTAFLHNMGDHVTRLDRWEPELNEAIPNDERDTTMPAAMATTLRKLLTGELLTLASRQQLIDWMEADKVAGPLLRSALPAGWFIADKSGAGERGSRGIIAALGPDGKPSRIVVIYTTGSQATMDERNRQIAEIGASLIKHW

For `N#Cc1ccn(Cc2ccc3c(c2C(=O)O)OB(O)CC3)n1` [Compound 18], the IC50 was below 1000 nM on VIM-1 (setting [1]); 1000 to 100000 nM at VIM-1 (setting [2]); 10 to 1000 nM at CTX-M-14; 10 to 1000 nM on NDM-5 (setting [3]); below 1000 nM at NDM-5 (setting [4]); below 10 nM at KPC-2. Further, the IC50 on TEM-1 was below 10 nM; on VIM-2, 10 to 1000 nM; at NDM-1 (setting [5]), 10 to 1000 nM; at NDM-1 (setting [6]), below 1000 nM; at IMP-1 it was 1000 to 100000 nM; on OXA-48, below 10 nM. The IC50 on SHV-12 was 10 to 1000 nM. Besides, the “inhibitory activity on CTX-M-14 compared to avibactam” value at CTX-M-14 is reported as “better or comparable”. For the same compound, on KPC-2, the “inhibitory activity on KPC-2 compared to avibactam” value was “better or comparable”. The “inhibitory activity on TEM-1 compared to avibactam” value on TEM-1 is on record as “better or comparable”. In addition, the “inhibitory activity on OXA-48 compared to avibactam” value on OXA-48 was “better or comparable”.
Regarding `NC(=O)c1cnn(Cc2ccc3c(c2C(=O)O)OB(O)CC3)c1` [Compound 19], the IC50 at VIM-1 (setting [1]) was below 1000 nM; on VIM-1 (setting [2]), 10 to 1000 nM; at CTX-M-14, 10 to 1000 nM; at NDM-5 (setting [3]), 10 to 1000 nM; on NDM-5 (setting [4]) it was below 1000 nM; at KPC-2, below 10 nM. In addition, the IC50 was below 10 nM on TEM-1; 10 to 1000 nM on VIM-2; 10 to 1000 nM at NDM-1 (setting [5]); below 1000 nM on NDM-1 (setting [6]); 1000 to 100000 nM at IMP-1; below 10 nM at OXA-48. Further, the IC50 at SHV-12 lay in the range of 10 to 1000 nM. For the same compound, the “inhibitory activity on CTX-M-14 compared to avibactam” value at CTX-M-14 was “better or comparable”. The “inhibitory activity on KPC-2 compared to avibactam” value at KPC-2 is reported as “better or comparable”. Also, the “inhibitory activity on TEM-1 compared to avibactam” value on TEM-1 is listed as “better or comparable”. In addition, on OXA-48, the “inhibitory activity on OXA-48 compared to avibactam” value is “better or comparable”.
In the case of `NC(=O)c1ccn(Cc2ccc3c(c2C(=O)O)OB(O)CC3)n1` [Compound 20], the IC50 on VIM-1 (setting [1]) is below 1000 nM; at VIM-1 (setting [2]) it was 10 to 1000 nM; at CTX-M-14 it was 10 to 1000 nM; on NDM-5 (setting [3]) it was 10 to 1000 nM; on NDM-5 (setting [4]), below 1000 nM; at KPC-2, below 10 nM. Further, the IC50 is below 10 nM at TEM-1; 10 to 1000 nM on VIM-2; 10 to 1000 nM on NDM-1 (setting [5]); below 1000 nM at NDM-1 (setting [6]); 1000 to 100000 nM at IMP-1; below 10 nM on OXA-48. Besides, the IC50 at SHV-12 lay within 10 to 1000 nM.
Turning to `O=C(O)c1c(Cn2ccnc2)ccc2c1OB(O)CC2` [Compound 23], the IC50 at VIM-1 (setting [1]) was below 1000 nM; on VIM-1 (setting [2]), 1000 to 100000 nM; on CTX-M-14, 10 to 1000 nM; on NDM-5 (setting [3]), 10 to 1000 nM; at NDM-5 (setting [4]), below 1000 nM; at KPC-2, below 10 nM. For the same compound, the IC50 at TEM-1 is 10 to 1000 nM; on VIM-2 it was 10 to 1000 nM; on NDM-1 (setting [5]), 10 to 1000 nM; on NDM-1 (setting [6]) it was below 1000 nM; on IMP-1 it was 1000 to 100000 nM; on OXA-48, below 10 nM. Besides, the IC50 on SHV-12 fell in the range of 10 to 1000 nM.
Take `Cc1nccn1Cc1ccc2c(c1C(=O)O)OB(O)CC2` [Compound 24]: the IC50 is below 1000 nM on VIM-1 (setting [1]); 1000 to 100000 nM at VIM-1 (setting [2]); 10 to 1000 nM on CTX-M-14; 1000 to 100000 nM on NDM-5 (setting [3]); below 10 nM at KPC-2; 10 to 1000 nM at TEM-1. The IC50 was 10 to 1000 nM at VIM-2; 1000 to 100000 nM at NDM-1 (setting [5]); 1000 to 100000 nM on IMP-1; below 10 nM at OXA-48; 10 to 1000 nM on SHV-12.
For the compound `N#Cc1cccn1Cc1ccc2c(c1C(=O)O)OB(O)CC2` [Compound 25], the IC50 was 1000 to 100000 nM at VIM-1 (setting [2]); 10 to 1000 nM at CTX-M-14; 1000 to 100000 nM on NDM-5 (setting [3]); below 10 nM on KPC-2; 10 to 1000 nM at TEM-1; 1000 to 100000 nM at VIM-2. Moreover, the IC50 lay in the range of 1000 to 100000 nM on NDM-1 (setting [5]), 1000 to 100000 nM at IMP-1, 10 to 1000 nM at OXA-48 and 10 to 1000 nM at SHV-12.
